The test has as its system PAF lethality in CD1 mice. In words: PAF lethality assay. It counts as in vivo. The following applies: Mus musculus; positive control; oral dosing 45 minutes before i.v. PAF; percent mortality compared to controls. The protocol: To evaluate the active compounds of the present invention, in vivo, they are tested by the so-called PAF lethality assay procedure: Materials:
Mice: CD1 males, all approximately the same weight (about 26 grams), 12 per group.
Vehicle for oral drug dosing: EES (5% ethanol, 5% emulphor, 90% saline). Stored at room temperature.
Drugs: For routine screening at 50 mg/kg, 20 mg drug is dissolved in 4 ml EES, using sonication in a sonicator bath or grinding in a Ten Broeck (trademark) grinder to dissolve drug if necessary. If solubility is still a problem, the drug is used as a suspension.
Vehicle for i.v. Injection: Saline with 2.5 mg/ml Bovine Serum Albumin (BSA, Sigma #A4378) and 0.05 mg/ml Propranolol (Sigma #P0884). Prepared fresh daily and kept at room temperature.
Platelet Activating Factor (PAF): A […] stock solution is prepared by dissolving 1 mg PAF (Calbiochem #429460) in 0.18 ml ethanol. This stored at -20° C. and is diluted in vehicle (see above) the day of use. The concentration of PAF used is calibrated so that when injected at 0.1 ml/10 grams body weight, it will kill approximately 80% of untreated controls. This is usually about […] (a 1 to 2034 dilution from stock). […]
45 minutes before PAF injection, mice are treated orally with drug using 0.1 ml/10 grams body weight. […] Results are expressed as percent mortality as compared to controls. […]

One may read the ED50 as the dose at which the effect has come halfway, by size or by number of responders. The low end stands for an effect at a small dose, the high end for a need for a large dose. Consider `O=C1CCN(c2ccccc2)N1` [Phenidone], for which the 50% effective dose (ED50) was roughly 25 mg/kg.

These data come from patent US5641789A, “Sulfonamide derivatives of benzenefused hydroxy substituted cycloalkyl and heterocyclic ring compounds” (Pfizer Inc., priority 1995, dated 1997).
